# Test results published in publication PMC4406830 (Biochemistry, 2015).
# What was measured:
# MtmC [1] = molecular target: T1, MtmC (Streptomyces argillaceus, UniProt Q194Q4); experiment: crystal structure, […] Å; format: binding; settings: binary complex; central-domain site; crystals pH 5.5
# T1 sequence (Q194Q4 1-420): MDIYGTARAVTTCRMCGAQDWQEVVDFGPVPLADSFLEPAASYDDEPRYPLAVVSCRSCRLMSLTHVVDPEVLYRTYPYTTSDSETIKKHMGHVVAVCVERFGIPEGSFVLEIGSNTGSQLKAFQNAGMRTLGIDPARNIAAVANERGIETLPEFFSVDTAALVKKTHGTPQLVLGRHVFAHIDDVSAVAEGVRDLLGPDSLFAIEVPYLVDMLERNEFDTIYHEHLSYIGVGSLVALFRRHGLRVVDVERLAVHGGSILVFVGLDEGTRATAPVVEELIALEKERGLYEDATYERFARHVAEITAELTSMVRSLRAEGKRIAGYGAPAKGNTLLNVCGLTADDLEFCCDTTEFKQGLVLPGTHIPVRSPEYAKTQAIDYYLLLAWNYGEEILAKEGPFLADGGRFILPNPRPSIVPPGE
# MtmC [2] = molecular target: T1, MtmC; experiment: crystal structure, […] Å; format: binding; settings: binary complex; C-terminal domain site; crystals pH 5.5
SMILES,"crystal structure, 2.2 Å (MtmC [1])","crystal structure, 2.7 Å (MtmC [2])"
C[S+](CC[C@H](N)C(=O)O)C[C@H]1O[C@@H](n2cnc3c(N)ncnc32)[C@H](O)[C@@H]1O (some centres unmarked) [SAM],4RVD (complex with SAM),
Cc1cn([C@H]2C[C@H](O)[C@@H](COP(=O)(O)OP(=O)(O)O)O2)c(=O)[nH]c1=O [TDP],,4RVF (complex with TDP)
